The structures appear in SMILES notation.

By melting point is commonly meant the temperature, or range, at which the solid turns liquid.

For `CCOC(=O)c1[nH]c(C)cc1N`, the melting point was 85 to 87 °C.
In the case of `Cc1noc2ccc([N+](=O)[O-])cc12`, the melting point is 84.5 to 86.5 °C.
The same measure for `CCC(=O)NCC1CN=C(c2ccccc2F)c2cc(Cl)ccc2N1` (stereo not given): 131 to 133 °C; for `CN(C)CCCOc1cccc(CC(=O)c2cccc(OCCCN(C)C)c2)c1`: 102 to 105 °C; for `O=c1[nH]nc(-c2ccccc2O)o1`: 198 to 200 °C.
Under `Cc1nc2c(/C=C/c3ccccc3)cccn2c1C` stands 240 to 255 °C.
For `CCOc1nn(Cc2ccc(OCc3nc(-c4ccco4)oc3C)nc2)cc1CC(=O)O`, the melting point fell in the range of 155 to 156 °C.
The same measure for `CCCC(CC)(CC)C(=O)O[C@H]1C[C@H](O)C=C2C=C[C@H](C)[C@H](CC[C@@H]3C[C@@H](O)CC(=O)O3)[C@H]21`: 130 to 131 °C; for `CCOC(=O)c1ccc(CN2CCN(C3=NC4(C=CC(=O)C=C4)C(c4ccccc4)=C3)CC2)cc1`: 199 °C.
The same measure for `O=C(O)Cc1cc(F)cc(Cc2nc3c(F)c(F)cc(F)c3s2)c1`: 139 to 142 °C.
Under `CN1CCN(C2=Nc3cscc3C(=CC#N)c3cscc32)CC1` stands 148 to 151 °C; under `O=C(O)c1cc(Br)c2cccnc2c1O`, 244 to 246 °C; under `Cc1ccccc1NC(=O)c1ccccc1[Si](C)(C)C`, 117 to 119 °C.
`ONCc1ccccc1` returned a melting point of 56 to 57 °C.
The same measure for `COC(=O)C(O)C(Sc1cc(Oc2cccc(C)c2)ccc1N)c1ccc(OC)cc1` (stereo not given): 112 to 115 °C.
The same measure for `CCN1CS(=C2SC(=S)N(Cc3ccccc3)C2=O)c2ccccc21` (stereo not given): 209 to 211 °C; for `CC(C)OC(=O)C=CC(=O)c1ccc(Oc2ccccc2)cc1`: 71.5 to 72 °C; for `NC(=O)c1ccccc1N1CCOCC1`: 112 to 119 °C.
The same measure for `CCC(C)(C)c1c(OCc2ncnn2C)nn2c(-c3c(F)ccc(F)c3F)nncc12`: 122 to 125 °C.
In turn, `N#Cc1ccc(N(Cc2ccc3cc(O)ccc3c2)n2cnnc2)cc1` registered a melting point of 281 to 284 °C.
In the case of `CN1C(=O)C(Cc2ccccc2)N(C)C(=O)C1=Cc1c(C#N)ccc(F)c1F` (stereo not given), the melting point was found to be 175 °C.
Under `CC(=O)Oc1cc(/C=C/c2ccccc2)cc(OC(C)=O)c1` stands 90 to 90.5 °C.
For the compound `C#CC(C)N(C)c1nc2ccc(OC(F)(F)F)cc2s1` (stereo not given), the melting point was 42 to 43 °C.
`COc1cccc([C@H]2O[C@H](CC(=O)NCc3ccc(CC(=O)O)cc3)C(=O)N(CC(C)(C)CO)c3ccc(Cl)cc32)c1OC`: the melting point was in the range of 129 to 132 °C.
`COc1ccc2c(c1)sc1nc(Nc3ccccc3)nc(=N)n12`: the melting point is 225 to 226 °C.
The same measure for `COC(=O)c1[nH]c(=O)n(C(=O)NCCCN2CCC(C(=O)OC)(c3ccccc3)CC2)c1-c1ccc(F)c(F)c1`: 134 to 136 °C; for `Cc1oc2c(C)c(C)c(NCc3ccc(F)cc3)c(C)c2c1-c1ccccc1`: 135 to 136 °C.
The same measure for `CC#CCOc1cc(OCC#CC)ncn1`: 82.9 °C; for `O=c1ccc(-c2ccc(Cl)cc2)n[nH]1`: 175 to 176 °C.
Under `O=C(c1cccc(O)c1)c1cccc(Cl)c1` stands 104 °C; under `ClCCCCOc1ccc(C2c3ccc(OCc4ccccc4)cc3OCC2c2ccccc2)cc1` (stereo not given), 94 to 97.5 °C; under `COc1cc2c(cc1CCCCO)oc1cc(-c3ccccc3Cl)c3c(c12)C(=O)NC3=O`, 158 to 162 °C.
Consider `CCOc1c(N)c2c(c(OCC)c1OCC)C(C1c3c(cc4c(c3OC)OCO4)CCN1C)OC2=O` (stereo not given), for which the melting point was in the range of 180 to 182 °C.
Under `NC(=O)C1=NN(c2cccc(COc3ccccc3)c2)C(c2ccccc2F)N1` (stereo not given) stands 176 to 178 °C; under `CN(Cc1ccccc1)C(=O)C[C@@H](Cc1ccccc1)C(=O)O`, 119 to 121 °C.
Regarding `O=C(c1ccccc1)N1C=CC(c2c(-c3ccc(F)cc3)nc3n2CCS3)C=C1`, the melting point is 188 to 189 °C.
Turning to `O=C(CC1CC1)NC[C@H]1CN(c2ccc3c(c2)CCCc2cnoc2-3)C(=O)O1`, the melting point is 187 to 191 °C.
The same measure for `CN1CCC(=C2c3ccccc3C=Cc3ccc(C(=O)O)cc32)CC1`: 300 to 305 °C; for `C#CCN(C(C)=O)c1cccc(C(=O)C=CN(C)C)c1`: 98 to 101 °C; for `CNC(=O)CC1CN=C(c2cc3cc(Oc4ccc(S(C)(=O)=O)nc4)c(F)c(OCCOC)c3[nH]2)S1` (stereo not given): 151 to 152 °C.
The same measure for `Nc1nc2ccccc2c2c1nc(C1CCCC1)n2CCOc1ccccc1`: 216 to 218 °C; for `Nc1ccc(OC2=C(Oc3ccc(N)cc3)C(F)(F)C(F)(F)C2(F)F)cc1`: 78 to 83 °C.
`CCCSc1sc(C(N)=O)c2c1-c1nc(-c3ccccc3)sc1CC2` yielded a melting point of 203 to 204 °C.
In turn, `CCOC(=O)c1cn(-c2c(O)cccc2O)cn1` yielded a melting point of 229 to 230 °C.
In the case of `CCOC(=O)Cc1nc(-c2ccccc2)oc1-c1ccoc1`, the melting point lay in the range of 84 to 85 °C.
Under `Cc1noc(NS(=O)(=O)c2ccccc2-c2ccc(-c3ncco3)cc2CN(C)C(=O)c2ccc(F)cc2)c1C` stands 125 to 135 °C; under `NCCCC(N)(C(=O)O)C(F)F` (stereo not given), 183 °C; under `c1cn2nc(SCCOC3CCCCO3)ccc2n1` (stereo not given), 60 to 62 °C.
The same measure for `CCC(C)(C)c1cc(-c2cccc(CC3SC(N4CCOCC4)=NC3=O)c2)ccc1O` (stereo not given): 74 to 77 °C.
`CC(C)n1nc(-c2sc(NC(=O)c3ccc(F)cc3)nc2-c2ccccc2)ccc1=O`: the melting point was 225 to 226 °C.
Under `COC(=O)c1ccc(NC(=O)c2cc(C(C)C)c(C(C)C)s2)cn1` stands 207 to 208 °C.
`O=C(CCCCCN1CCC(c2cccc(C(F)(F)F)c2)CC1)N1Cc2ccccc2C1` showed a melting point of 71 °C.
The same measure for `OCCOc1ccc(Oc2ccc(F)cc2)cc1`: 74 to 76 °C; for `CCCCNC(=O)N(C)c1cccc(-c2ccc(C=C(OC)C(=O)OC)cc2)c1`: 89 °C; for `O=S(=O)(Nc1cccc(C=C2c3ccccc3CCc3ccccc32)c1)c1ccccc1`: 122 °C.
In turn, `CCOC(=O)c1cnc2ccc(Cl)cc2c1O` displayed a melting point above 260 °C.
The same measure for `Cc1ccc(=NC(=O)C(F)(F)F)n(-c2cccc(C(F)(F)F)c2)c1`: 115 °C; for `CCN1C(=O)C(C)(C)C(=O)N(C)c2cc(CN(CCn3ccc4oc(C)cc4c3=O)Cc3ncoc3C)ccc21`: 129 to 130 °C; for `CCn1ncc2c(NCc3ccccc3)c3ccc(O)cc3nc21`: 252 to 254 °C.
On to `CCC(=O)c1ccsc1N`, for which the melting point fell in the range of 140 to 142 °C.
For `CC(C)(C)c1cc(N=C2CCCc3cc4c(nc32)C(=Nc2cc(C(C)(C)C)cc(C(C)(C)C)c2)CCC4)cc(C(C)(C)C)c1`, the melting point fell in the range of 129 to 132 °C.
The same measure for `CC(Nc1ncccc1C#N)c1c(Cl)cccc1Cl` (stereo not given): 84.4 °C.
In the case of `Nc1nc2c(ncn2Cc2cccnc2)c(=O)[nH]1`, the melting point was above 300 °C.
`C1=C(c2cccc3c2ccn3Cc2ccccc2)CCN(Cc2ccccc2)C1`: the melting point was found to be 154 °C.
Regarding `O=C1CC[C@@H](CO)N1Cc1ccccc1`, the melting point was 82 to 84 °C.
The same measure for `ClC(Cl)(Oc1ccccc1)Oc1ccccc1`: 42 to 44 °C.
`COC(=O)c1cncn1C1c2cccc(Cl)c2CC1(C)C` (stereo not given): the melting point was in the range of 111 to 113 °C.
Under `C=CCNc1ccc(C(=O)OC)cc1` stands 71 to 73 °C.
On to `COc1cc(CN2CCN(C(=O)c3cc4ccccc4oc3=O)CC2)cc(OC)c1OC`, for which the melting point fell in the range of 171 to 173 °C.
As to `Cc1ncn(Nc2cccc(Cl)c2)c1-c1ccccc1`, the melting point is 218 °C.
In the case of `Cc1ccc(S(=O)(=O)OCC2OC(n3ccc(=O)[nH]c3=O)CC2O)cc1` (stereo not given), the melting point came out at 162 °C.
Under `O=C(CCNC(=O)C(=Cc1ccccc1)CSC(=O)c1ccccc1)OCc1ccccc1` stands 60 °C; under `CC(C)(O)c1cc(Br)cnc1N`, 107 to 108 °C.
As to `COC(=O)C(C)OC(=O)Cc1cc(Oc2ccc(C(F)(F)F)cc2Cl)ccc1[N+](=O)[O-]` (stereo not given), the melting point is 72.1 to 72.9 °C.
Under `CCOC(=O)c1nnc(SC)nc1NCc1ccc(OC)c(Cl)c1` stands 101 to 105 °C.
Under `COc1ccc(Sc2ccc3[nH]cc(C4CCN(C)CC4)c3c2)cc1` stands 160 to 162 °C.
`COc1cc2c(Nc3cc(OC)c(OC)c(OC)c3)c(C#N)cnc2cc1/C=C/CCO` yielded a melting point of 184 to 185 °C.
On to `CCn1cnc2c(Nc3cccc(F)c3)nc(Cl)nc21`, for which the melting point was 136 °C.
For `CCOc1cc(C(CS(C)(=O)=O)N2Cc3cccc(NC(=O)C4CC4)c3C2=O)ccc1OC(F)F` (stereo not given), the melting point lay within 115 to 117 °C.
Under `O=C(O)C1=Cc2cc(Cl)cc(-c3ccco3)c2OC1C(F)(F)F` (stereo not given) stands 172 to 173 °C.
`O=C(CCl)Nc1ccc2[nH]c(=O)c3ccccc3c2c1`: the melting point lay within 300 to 303 °C.
Under `CC(=O)C(C(C)=O)C(C(C)=O)C(C)=O` stands 193 to 194 °C; under `CCOC(=O)c1cc2c(=O)n(C3CCCC3)c3ccccc3n2c1`, 183 to 185 °C; under `N#Cc1cc(C=C2SC(=S)NC2=O)cc(O)c1O`, above 350 °C.
The same measure for `CCOC(=O)c1ccc(-c2ccc(-c3ccc(C(F)(F)F)cc3)n2C)cc1`: 150 to 151 °C; for `Cc1nc(N)c2nc(C)n(CCOCc3ccccc3)c2c1C`: 137 to 138 °C.
Under `COc1cc(Cc2cnc(N3C(=O)c4ccccc4C3=O)nc2N)cc(OC)c1OC` stands 221 °C; under `Cc1cc(Oc2ccc(NC(=O)N(C)C)cc2)nc(Cl)n1`, 176 to 178 °C.
`COc1ccc(Cn2nc(CO)c3ccccc32)cc1` registered a melting point of 95 to 97 °C.
`ONCCc1ccccc1` returned a melting point of 118 to 121 °C.

Source of the values: a melting point compilation (Tetko et al.; mined from patent text by program, amines drawn as free bases though some values may be those of a salt).
